In patent publication US20240343727A1, “PYRIDAZINONE OR PYRIDINONE COMPOUNDS, PREPARATION METHODS AND USES THEREOF” (InventisBio Co., Ltd., priority 2021, published 2024):

The molecules below were run against T1, PARP7 (Homo sapiens, UniProt Q7Z3E1) (assay: PARP7 TR-FRET assay (binding, displacement of biotinylated Probe A)). Conditions: 6 nM PARP7, 2 nM Probe A, 25° C., 30 min.
T1 sequence (Q7Z3E1 1-657): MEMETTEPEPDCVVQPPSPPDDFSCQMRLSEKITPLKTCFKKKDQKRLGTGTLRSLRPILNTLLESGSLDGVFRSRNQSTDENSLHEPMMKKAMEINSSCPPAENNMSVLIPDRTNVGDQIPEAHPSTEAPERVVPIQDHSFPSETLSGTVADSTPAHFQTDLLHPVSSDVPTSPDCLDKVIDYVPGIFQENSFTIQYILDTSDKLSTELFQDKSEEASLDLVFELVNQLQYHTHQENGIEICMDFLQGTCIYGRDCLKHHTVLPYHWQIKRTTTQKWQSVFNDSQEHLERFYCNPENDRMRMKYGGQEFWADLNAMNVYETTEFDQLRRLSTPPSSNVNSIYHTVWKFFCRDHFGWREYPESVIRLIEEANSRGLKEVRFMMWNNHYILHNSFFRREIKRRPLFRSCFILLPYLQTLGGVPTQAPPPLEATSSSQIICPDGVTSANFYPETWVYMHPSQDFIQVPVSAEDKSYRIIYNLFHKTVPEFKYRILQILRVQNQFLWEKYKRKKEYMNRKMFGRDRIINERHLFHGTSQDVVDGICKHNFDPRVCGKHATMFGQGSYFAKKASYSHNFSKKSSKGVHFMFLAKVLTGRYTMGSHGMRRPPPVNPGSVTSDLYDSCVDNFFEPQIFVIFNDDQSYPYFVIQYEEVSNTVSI
Protocol: Biological Assay Example A: PARP7 TR-FRET Assay
A time-resolved fluorescence energy transfer (TR-FRET) assay was used to test binding activity of compounds to PARP7. Two microliter test compound was added in 384-well plate. Reactions were performed in a 6 uL volume by adding 4 uL mixture of PARP7 and Probe A (a biotinylated probe binding to the PARP7: N-(6-(2-(4-((2-(6-oxo-5-(trifluoromethyl)-1,6-dihydropyridazin-4-yl) isoindolin-5-yl) oxy) piperidin-1-yl) acetamido) hexyl)-5-((3aS,4S,6aR)-2-oxohexahydro-1H-thieno [3,4-d]imidazol-4-yl) pentanamide, made as reported in WO2019212937A1) in assay buffer (20 mM HEPES pH 8.0, 100 mM NaCl, 0.1% BSA, 2 mM DTT and 0.002% Tween20). The final concentration of PARP7 and Probe A were 6 nM and 2 nM, incubating with test compounds at 25° C. for 30 min. Four microliter ULight-anti 6xHis and LANCE Eu-W1024 labeled streptavidin (PerkinElmer) were added with the final concentration of ULight-anti 6xHis and LANCE Eu-W1024 at 4 nM and 0.25 nM. The reaction mixture was incubated at 25° C. for 30 min. The plate was read on a Tecan Spark plate reader (excitation wavelength at 320 nm, emission wavelength at 615 nm and 665 nm with a 90 us delay. The ratio of the 665/615 nm emission was calculated for each well to the amount of complex of PARP7 and Probe A in each well was calculated. The 0.25% DMSO vehicle was used as control and no PARP7 well was as blank well. Inhibition rate is calculated with the formula of % inhibition=100-100*(TRFcmpd-TRFblank)/(TRFcontrol−TRFblank). Inhibition IC50 is calculated with the equation of Y=Bottom+ (Top-Bottom)/(1+10^((LogIC50−X) *Hill Slope))

Compound | IC50 [nM]
O=C(c1cncc(Oc2n[nH]c(=O)c(C(F)(F)F)c2N2CC(C3CC3)C2)c1)N1CCN(c2ncc(C(F)F)cn2)CC1 [Compound 279] | < 100
O=C(CCO[C@H]1CCNc2c1n[nH]c(=O)c2C(F)(F)F)N1CCN(c2ncc(C(F)(F)F)cn2)CC1 (single isomer, unassigned) [Compound 7] | 100 to 1000
O=C(CC1CN(c2cc(C(F)(F)F)c(=O)[nH]n2)c2cc(Cl)ccc2O1)N1CCN(c2cnc(C(F)(F)F)cn2)CC1 (single isomer, unassigned) [Compound 143] | < 100
O=C(c1cccc(Oc2n[nH]c(=O)c(C(F)(F)F)c2N2CC3(CCC3)C2)c1)N1CCN(c2nnc(C(F)(F)F)s2)CC1 [Compound 231] | < 100
COC1CN(c2c(Oc3ccnc(C(=O)N4CCN(c5ncc(C(F)(F)F)cn5)[C@H](C)C4)c3)n[nH]c(=O)c2C(F)(F)F)C1 [Compound 342] | < 100
Cc1c(Oc2ccc(F)c(C(=O)N3CCN(c4ncc(C(F)(F)F)cn4)CC3)c2)n[nH]c(=O)c1C(F)(F)F [Compound 25] | < 100
O=C(CC1CN(c2cc(C(F)(F)F)c(=O)[nH]n2)c2cc(Cl)ccc2O1)N1CCN(c2ncc(C(F)(F)F)cn2)CC1 (single isomer, unassigned) [Compound 133] | < 100
N#CC1(c2ccnc(N3CCN(C(=O)CC4CN(c5cc(C(F)(F)F)c(=O)[nH]n5)c5cc(F)ccc5O4)CC3)n2)CC1 (single isomer, unassigned) [Compound 343] | < 100
COCC1CN(c2c(Oc3cccc(C(=O)N4CCN(c5ncc(C(F)(F)F)cn5)CC4)c3)n[nH]c(=O)c2C(F)(F)F)C1 [Compound 186] | < 100
O=C(CO[C@H]1CCNc2c1n[nH]c(=O)c2C(F)(F)F)N1CCN(c2ncc(C(F)(F)F)cn2)CC1 (single isomer, unassigned) [Compound 3] | 100 to 1000
C#Cc1cnc(N2CCN(C(=O)c3cccc(Oc4n[nH]c(=O)c(C(F)(F)F)c4N4CC5(COC5)C4)c3)CC2)nc1 [Compound 302] | < 100
CO[C@H]1C[C@H](Nc2c(Oc3cccc(C(=O)N4CCN(c5ncc(C(F)(F)F)cn5)CC4)c3)n[nH]c(=O)c2C(F)(F)F)C1 [Compound 190] | < 100
C#Cc1ccc2c(=O)[nH]nc(N3CCOC(CC(=O)N4CCN(c5ncc(C(F)(F)F)cn5)CC4)C3)c2c1 (single isomer, unassigned) [Compound 194] | < 100
Cc1c(N2C[C@H](CC(=O)N3CCN(c4ncc(C(F)(F)F)cn4)CC3)O[C@H](C)C2)n[nH]c(=O)c1C(F)(F)F (stereo in doubt) [Compound 41] | < 100
C[C@H]1CN(c2n[nH]c(=O)c3c(F)cccc23)C[C@H](CC(=O)N2CCN(c3ncc(C(F)(F)F)cn3)CC2)O1 (stereo in doubt) [Compound 91] | 100 to 1000
Cc1c(N(C)c2cccc(C(=O)N3CCN(c4ncc(C(F)(F)F)cn4)CC3)c2)n[nH]c(=O)c1C(F)(F)F [Compound 77] | < 100
O=C(CC1CN(c2n[nH]c(=O)c3ccc(F)cc23)CCO1)N1CCN(c2ncc(C(F)(F)F)cn2)CC1 (single isomer, unassigned) [Compound 52] | < 100
O=C(c1cncc(Oc2n[nH]c(=O)c(C(F)(F)F)c2N2CC3(C2)CC(F)(F)C3)c1)N1CCN(c2ncc(Cl)cn2)CC1 [Compound 277] | < 100

Other lines, results leading:

IC50 [nM] | Compound
100 to 1000 | N#Cc1cnc(N2CCN(C(=O)CC3CN(c4cc(C(F)(F)F)c(=O)[nH]n4)c4cc(F)ccc4O3)CC2)nc1 (single isomer, unassigned) [Compound 265]
< 100 | N#Cc1ccc(N2CCN(C(=O)c3cc(Oc4n[nH]c(=O)c(C(F)(F)F)c4N4CC5(C4)CC(F)(F)C5)ccn3)CC2)nc1 [Compound 306]
< 100 | O=C(c1cccc(Oc2n[nH]c(=O)c(C(F)(F)F)c2N2CC3(CCO3)C2)c1)N1CCN(c2ncc(C(F)(F)F)cn2)CC1 [Compound 212]
< 100 | N#CC1(c2ccnc(N3CCN(C(=O)CC4CN(c5cc(C(F)(F)F)c(=O)[nH]n5)c5cc(Cl)ccc5O4)CC3)n2)CC1 (stereo not shown) [Compound 150]
100 to 1000 | CN1C[C@H](OCC(=O)N2CCN(c3ncc(C(F)(F)F)cn3)CC2)c2n[nH]c(=O)c3cc(F)cc1c23 (single isomer, unassigned) [Compound 13]
< 100 | O=C(c1cncc(Oc2n[nH]c(=O)c(C(F)(F)F)c2N2CC3(CCCO3)C2)c1)N1CCN(c2ncc(C(F)(F)F)cn2)CC1 [Compound 233]
< 100 | CS(=O)(=O)c1ccc2c(c1)N(c1cc(C(F)(F)F)c(=O)[nH]n1)CC(CC(=O)N1CCN(c3ncc(C(F)(F)F)cn3)CC1)O2 (single isomer, unassigned) [Compound 205]
< 100 | N#Cc1ccc2c(=O)[nH]nc(N3CCOC(CC(=O)N4CCN(c5ncc(C(F)(F)F)cn5)CC4)C3)c2c1 (single isomer, unassigned) [Compound 245]
< 100 | O=C(c1cccc(Oc2n[nH]c(=O)c(C(F)(F)F)c2NCC2CC2)c1)N1CCN(c2ncc(C(F)(F)F)cn2)CC1 [Compound 204]
100 to 1000 | O=C(CC1CN(c2cc(C(F)(F)F)c(=O)[nH]n2)c2ccccc2O1)N1CCN(c2ccc(C(F)(F)F)cn2)CC1 (single isomer, unassigned) [Compound 247]
100 to 1000 | CNC1CC(Nc2c(Oc3cccc(C(=O)N4CCN(c5ncc(C(F)(F)F)cn5)CC4)c3)n[nH]c(=O)c2C(F)(F)F)C1 (stereo not shown) [Compound 171]
> 1000 | O=C(c1cccc(Oc2n[nH]c(=O)cc2C(F)(F)F)c1)N1CCN(c2ncc(C(F)(F)F)cn2)CC1 [Compound 18]
< 100 | O=C(CCO[C@@H]1CCNc2c1n[nH]c(=O)c2C(F)(F)F)N1CCN(c2ncc(C(F)(F)F)cn2)CC1 (single isomer, unassigned) [Compound 6]
100 to 1000 | O=C(CC1CN(c2cc(C(F)(F)F)c(=O)[nH]n2)c2cc(F)ccc2O1)N1CCN(c2ncc(OC(F)(F)F)cn2)CC1 (single isomer, unassigned) [Compound 312]
100 to 1000 | C[C@@H]1CN(c2n[nH]c(=O)c3cccc(F)c23)C[C@@H](CC(=O)N2CCN(c3ncc(C(F)(F)F)cn3)CC2)O1 (stereo in doubt) [Compound 90]
< 100 | C#Cc1cnc(N2CCN(C(=O)c3cccc(Oc4n[nH]c(=O)c(C(F)(F)F)c4N4CC5(CCCO5)C4)c3)CC2)nc1 [Compound 275]
100 to 1000 | CNCc1ccc2c(c1)N(c1cc(C(F)(F)F)c(=O)[nH]n1)CC(CC(=O)N1CCN(c3ncc(C(F)(F)F)cn3)CC1)O2 (single isomer, unassigned) [Compound 297]
100 to 1000 | CNCc1ccc2c(c1)N(c1cc(C(F)(F)F)c(=O)[nH]n1)CC(CC(=O)N1CCN(c3ncc(C(F)(F)F)cn3)CC1)O2 (single isomer, unassigned) [Compound 298]
100 to 1000 | Cc1c(Oc2cc(C(=O)N3CCN(c4ncc(C(F)(F)F)cn4)CC3)ccc2Cl)n[nH]c(=O)c1C(F)(F)F [Compound 24]
< 100 | O=C(c1cccc(Oc2n[nH]c(=O)c(C(F)(F)F)c2N2CC3(COC3)C2)c1)N1CCN(c2ncc(C(F)(F)F)cn2)CC1 [Compound 165]
100 to 1000 | C[C@@H]1CN(c2n[nH]c(=O)c3c(F)cccc23)C[C@H](CC(=O)N2CCN(c3ncc(C(F)(F)F)cn3)CC2)O1 (stereo in doubt) [Compound 118]
< 100 | O=C(CC1CN(c2cc(C(F)(F)F)c(=O)[nH]n2)c2cc(F)ccc2O1)N1CCN(c2ncc(OC(F)(F)F)cn2)CC1 (single isomer, unassigned) [Compound 311]
< 100 | C[C@H]1CN(c2cc(C(F)(F)F)c(=O)[nH]n2)C[C@H](CC(=O)N2CCN(c3ncc(C(F)(F)F)cn3)CC2)O1 (stereo in doubt) [Compound 111]
< 100 | CNC(=O)c1ccc2c(c1)N(c1cc(C(F)(F)F)c(=O)[nH]n1)CC(CC(=O)N1CCN(c3ncc(C(F)(F)F)cn3)CC1)O2 (single isomer, unassigned) [Compound 323]
< 100 | O=C([C@@H]1COCCN1c1cc(C(F)(F)F)c(=O)[nH]n1)N1CCN(c2ncc(C(F)(F)F)cn2)CC1 [Compound 36]
